How the values were obtained:
[1] = biological target: T1, human histamine H4 receptor (Homo sapiens, UniProt Q9H3N8); test: [3H]histamine displacement assay, membranes of Sf9 cells expressing hH4R with Gαi2 and Gβ1γ2; type: binding; conditions: Sf9 membranes, mean within 95% CI
T1 construct: made in house; host or cells: Sf9 cells (membrane preparations)
Method: The affinity of compounds 2–20 for hH4R was evaluated in a binding assay as previously described. [^3H]Histamine was used as a radioligand and hH4R was expressed in Sf9 cells with G protein Gαi2 and Gβ1γ2 subunits. The pharmacological results represented as Ki values are listed in Table 1 (for alicyclic derivatives) and Table 2 (for aliphatic derivatives). […] Results depended on the substituent in the four positions of a triazine (a main structure).
Affinities of all triazine derivatives were determined in a [^3H] histamine (f.c. 10 nM) displacement assay using membrane preparations from Sf9 cells expressing human H4R and co-expressed with Gαi2 and Gβ1γ2 subunits as described previously. Nonspecific binding was determined in the presence of unlabelled JNJ7777120 ([…]).

[2] = test system: mice; test: Formalin test; type: in vivo; conditions: for Paw licking/biting, late phase of formalin test, % of the control group: 15–30 min after formalin
Method: The blockade of H4Rs expressed in inflammatory cells results in anti-inflammatory and analgesic effects. On the contrary, the activation of neuronal H4Rs leads to analgesia.
The procedure used was essentially the same as that described previously. […] The total time (in s) spent on licking the injected paw during periods of 0–5 min (early phase, neurogenic) and 15–30 min (late phase, inflammatory) was measured and was considered as an indicator of nociceptive behaviour. Before formalin injection different groups of mice were treated i.p. with vehicle (10 mL/kg, negative control) and the dose–response of the investigated compound.

[3] = test system: mice; test: Histamine-induced pruritus; type: in vivo; conditions: 25 mg/kg i.p.
Method: Intradermal injection of histamine induced scratching bouts in the amount of 62.11 ± 9.4. […].
The surface (around 2 cm^2) of the mice’s nape was shaved at least 2 days prior to experiments. On the day of the experiment, mice were individually placed in plastic chambers (15 × 15 × 30 cm) and after the 30 min habituation period, they were given an intradermal (i.d.) injection of histamine dihydrochloride (10 µmol/site) or chloroquine (CQ, 200 µg/site), which were dissolved in physiological saline and administrated in the constant volume of 20 μL. Immediately after the injection, scratching (series of movements considered as a single scratching bout) of the injected site by the hind paw was counted for 60 min or 30 min after histamine and CQ administration, respectively. Before pruritogens injection different groups of mice were treated i.p. with vehicle (10 mL/kg, negative control) or the dose–response of investigated compound.
Figure 9 The effect of compound 6 and reference compound pyrilamine (Pyr) on the number of scratching bouts during 60 min-long observation in histamine-induced pruritus (A) and 30 min-long observation in chloroquine-induced pruritus (B). The tested compound or vehicle (1% solution of Tween 80) was administered intraperitoneally (i.p.) 30 min before the intradermal (i.d.) injection of histamine or chloroquine. The results are presented as bar plots showing the mean ± SEM. Statistical analysis: one-way ANOVA followed by Dunnett’s post hoc test, * p < 0.05, ** p < 0.01, *** p < 0.001, n = 8–10 mice per group.

[4] = test system: rats; test: Carrageenan-induced inflammatory pain and oedema; type: in vivo
Description: We wanted to confirm the activity in an additional model of inflammation in another species. To evaluate the influence of compound 6 on acute inflammation, such as oedema and hyperalgesia, we tested it in the carrageenan-induced inflammation model in rats. […] As oedema is one of the most significant symptoms of inflammation resulting from the release of inflammatory mediators, we may conclude that compound 6 has some anti-inflammatory activity. […] The response to mechanical stimuli was observed as the pain withdrawal threshold (Figure 8B) decreased from the value of 138.33 ± 1.05 g (baseline) before carrageenan injection to the value of 120.83 ± 2.0 g (87.3% of the baseline) 3 h after injection, 125.83 ± 2.51 (90.9% of the baseline) 6 h after injection, and 124.17 ± 2.0 (89.7% of the baseline). […] The results obtained confirmed its analgesic activity in mechanical inflammatory hyperalgesia. […] We claim that the effect may result from the inhibition of the release of inflammatory mediators and subsequent inhibition of peripheral and central sensitization. […] The effect was not as persistent as in the mechanical hyperalgesia and was observed only 1, 2 and 3 h after induction of inflammation.
The procedure used was described previously. Briefly, the inflammation and paw oedema was induced by subplantar injection of 0.1 mL of 1% carrageenan (made in PBS) into the right hind paw of the rat. The paw volume was measured by the dislocation of the water column of the plethysmometer (Plethysmometer 7140, Ugo Basile). The hyperalgesic response to mechanical stimuli was measured using Analgesy Meter 37215, Ugo Basile. The intensity of the applied force, in grams, was recorded when the paw was withdrawn (withdrawal threshold). Moreover, the hyperalgesic response to thermal stimuli was determined by using a plantar test apparatus (Commat Ltd., Ankara, Turkey). The latency to the heat stimulus was automatically recorded. Three subsequent applications of the heating stimulus were done, separated by 1- to 2-min intervals, and the mean of these measures was taken.
Figure 8 Effect of compound 6 on carrageenan-induced oedema (A), mechanical hyperalgesia (B) and thermal hyperalgesia (C) developed after subplantar injection of 1% carrageenan in rats. Data are expressed as means ± SEM for 5–6 animals. Time 0—the initial reaction considered as the nociceptive reaction before carrageenan administration. Statistical significance compared to vehicle-treated animals: * p < 0.05, ** p < 0.01, *** p < 0.001, **** p < 0.0001. Statistical analysis: two-way ANOVA post hoc Bonferroni test. Statistical significance compared to initial value (0 time point) in the vehicle-treated group: # p < 0.05, ## p < 0.01, ### p < 0.0001. Statistical analysis: one-way ANOVA followed by Dunnett’s post hoc test.

T1 sequence (Q9H3N8 whole entry): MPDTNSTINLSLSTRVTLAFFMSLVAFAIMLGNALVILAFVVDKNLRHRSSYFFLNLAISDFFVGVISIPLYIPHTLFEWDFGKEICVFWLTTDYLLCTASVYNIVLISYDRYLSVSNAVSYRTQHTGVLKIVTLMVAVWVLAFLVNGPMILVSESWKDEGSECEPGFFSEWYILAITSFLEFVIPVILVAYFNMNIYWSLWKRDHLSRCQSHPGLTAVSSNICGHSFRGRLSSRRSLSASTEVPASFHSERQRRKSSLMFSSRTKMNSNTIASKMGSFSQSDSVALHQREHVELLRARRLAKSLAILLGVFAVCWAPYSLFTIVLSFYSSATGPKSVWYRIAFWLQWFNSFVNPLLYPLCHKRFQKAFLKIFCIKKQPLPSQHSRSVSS

With `CN1CCN(c2nc(N)nc(CC3CCCC3)n2)CC1` [Compound 6, 4-(Cyclopentylmethyl)-6-(4-methylpiperazin-1-yl)-1,3,5-triazin-2-amine] as the molecule, how does the Ki [1] read?
Its Ki is 0.063 µM.

What about the melting point of the same molecule?
The melting point was 165 to 168 °C.

What about the “Paw licking/biting, late phase of formalin test, % of the control group” value ([2]; 50 mg/kg i.p.) of the same molecule?
The value was 44.02 % of the control group.

And the “Paw licking/biting, late phase of formalin test, % of the control group” value ([2]; 75 mg/kg i.p.)?
Its value is 56.62 % of the control group.

And the “Duration of nociceptive response, acute phase of formalin test” value ([2]; i.p., 0–5 min after formalin)?
Its value is “did not significantly affect”.

What about the “Scratch bouts, histamine-induced pruritus, % of the control value” ([3]; 60 min observation) of the same molecule?
The value was 13.47 % of the control value.

What about the “Number of scratch bouts, histamine-induced pruritus” value ([3]; 60 min observation (control 62.11 ± 9.4)) of the same molecule?
The value was 8.37 ± 1.96 scratch bouts.

And the “Pain withdrawal threshold (mechanical hyperalgesia)” value (“Pain withdrawal threshold” for short) ([4]; 50 mg/kg, 3 h after carrageenan (vehicle 87.3%))?
The value was 122.1 % of the baseline.

And the “Pain withdrawal threshold” value ([4]; 50 mg/kg, 6 h after carrageenan (vehicle 90.9%))?
The value was 119.5 % of the baseline.

And the “Pain withdrawal threshold” value ([4]; 50 mg/kg, third time point (time not given, presumably 24 h; vehicle 89.7%))?
Its value is 111.7 % of the baseline.

What about the “Paw volume increase (carrageenan oedema)” value ([4]; 75 mg/kg, 1 h after carrageenan (vehicle 48.9%)) of the same molecule?
The value was 22.1%.

And the “Paw withdrawal latency (thermal hyperalgesia)” value (“Paw withdrawal latency” for short) ([4]; 75 mg/kg, 1 h after inflammation induction (vehicle 62.44%))?
The value was 129.5 % of baseline.

And the “Paw volume increase (carrageenan oedema)” value ([4]; 75 mg/kg, 2 h after carrageenan (vehicle 79.3%))?
The value was 46.3%.

And the “Paw withdrawal latency” value ([4]; 75 mg/kg, 2 h after inflammation induction (vehicle 65.13%))?
Its value is 103.6 % of baseline.

What about the “Pain withdrawal threshold” value ([4]; 75 mg/kg, 3 h after carrageenan) of the same molecule?
The value was 107.5 % of the baseline.

What about the “Paw volume increase (carrageenan oedema)” value ([4]; 75 mg/kg, 3 h after carrageenan (vehicle 113.0%)) of the same molecule?
The value was 72.6%.

What about the “Paw withdrawal latency” value ([4]; 75 mg/kg, 3 h after inflammation induction (vehicle 45.63%)) of the same molecule?
Its value is 86.3 % of baseline.

And the “Pain withdrawal threshold” value ([4]; 75 mg/kg, 6 h after carrageenan)?
The value was 113.2 % of the baseline.

What about the “Paw volume increase (carrageenan oedema)” value ([4]; 75 mg/kg, 6 h after carrageenan (vehicle 115.2%)) of the same molecule?
The value was 76.8%.

And the “Paw volume increase (carrageenan oedema)” value ([4]; 75 mg/kg, 24 h after carrageenan (vehicle 114.1%))?
The value was 55.8%.

And the “Pain withdrawal threshold” value ([4]; 75 mg/kg, third time point (time not given, presumably 24 h))?
The value was 113.8 % of the baseline.

From publication PMC10224356, “Trisubstituted 1,3,5-Triazines as Histamine H4 Receptor Antagonists with Promising Activity In Vivo” (Molecules, 2023)
